Assay [1] concerns LTB4 synthesis in human whole blood. The assay can be described thus: human whole blood (HWB) assay, inhibition of LTB4 production. The assay is classed as cell-based. As to conditions: heparinized human whole blood, calcimycin 20 μM stimulation, plasma LTB4. Summed up: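 Heparinized human whole blood preincubated with compound 15 min at 37 °C, then stimulated with 20 μM (final) calcimycin for 30 min at 37 °C. Plasma LTB4 measured by antibody-based HTRF; IC50 reported.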

The target of another assay is T1, human LTA4 hydrolase (Homo sapiens, UniProt P09960).
T1 sequence (P09960 1-611): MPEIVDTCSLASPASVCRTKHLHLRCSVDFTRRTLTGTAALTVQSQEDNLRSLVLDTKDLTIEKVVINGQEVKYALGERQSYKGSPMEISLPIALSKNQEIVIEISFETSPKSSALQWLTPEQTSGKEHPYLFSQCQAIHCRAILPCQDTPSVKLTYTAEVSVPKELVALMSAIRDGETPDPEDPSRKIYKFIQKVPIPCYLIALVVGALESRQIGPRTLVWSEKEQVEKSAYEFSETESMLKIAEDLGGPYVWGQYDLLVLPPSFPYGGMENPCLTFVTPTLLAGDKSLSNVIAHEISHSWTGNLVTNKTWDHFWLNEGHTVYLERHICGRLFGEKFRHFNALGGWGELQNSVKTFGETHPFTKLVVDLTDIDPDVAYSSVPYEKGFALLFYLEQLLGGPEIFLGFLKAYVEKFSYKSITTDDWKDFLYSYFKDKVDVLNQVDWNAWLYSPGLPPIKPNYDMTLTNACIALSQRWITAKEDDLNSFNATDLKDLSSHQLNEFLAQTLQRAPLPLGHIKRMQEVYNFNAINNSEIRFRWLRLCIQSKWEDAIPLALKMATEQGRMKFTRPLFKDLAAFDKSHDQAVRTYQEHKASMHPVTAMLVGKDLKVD
The assay is described as follows: LTA4H Enzyme assay (peptidase, Arg-AMC cleavage). The conditions noted are these: LTA4H enzyme 1 nM, Arg-AMC substrate 50 μM, room temperature 1 h, fluorescence 380/460 nm. The format is biochemical. Summed up:
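Human LTA4H (1 nM final) incubated with compound and Arg-AMC (50 μM final) in 50 mM Tris-HCl pH 7.5, 100 mM KCl, 0.5% BSA, 1 h at room temperature. Product read as AMC fluorescence (ex 380/em 460 nm); IC50 reported.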

Each structure is given as a SMILES string.

As usually defined, the IC50 is the point on the concentration scale where inhibition reaches its midpoint. Take `OC(C1CCN(Cc2nc3cc(Oc4ccc(-c5ccn[nH]5)cc4)ccc3[nH]2)CC1)C(F)(F)F` (centres unmarked) [Example 71, 2,2,2-Trifluoro-1-(1-{5-[4-(2H-pyrazol-3-yl)-phenoxy]-1H-benzoimidazol-2-ylmethyl}-piperidin-4-yl)-ethanol]: the half-inhibitory concentration (IC50) in assay [1] was found to be 260 nM; against human LTA4 hydrolase, 0.14 nM.

On to `c1cc(-c2ccc(Oc3ccc4[nH]c(CN5CC6(COC6)C5)nc4c3)cc2)[nH]n1` [Example 72, 2-(2-Oxa-6-aza-spiro[3.3]hept-6-ylmethyl)-5-[4-(2H-pyrazol-3-yl)-phenoxy]-1H-benzoimidazole], for which the IC50 in assay [1] was found to be 320 nM; against human LTA4 hydrolase, 0.14 nM.

In the case of `c1cncc(Cc2nc3cc(Oc4ccc(-c5ccn[nH]5)cc4)ccc3[nH]2)c1` [Example 73, 5-[4-(2H-Pyrazol-3-yl)-phenoxy]-2-pyridin-3-ylmethyl-1H-benzoimidazole], the values for the IC50 (in assay [1]; on human LTA4 hydrolase) were 330 nM and 0.36 nM, respectively.

As for `CC[C@H](C)N(C)Cc1nc2cc(Oc3ccc(-c4ccn[nH]4)cc3)ccc2[nH]1` [Example 74, ((S)-sec-butyl)-methyl-{5-[4-(2H-pyrazol-3-yl)-phenoxy]-1H-benzoimidazol-2-ylmethyl}-amine], the IC50 in assay [1] amounted to 67 nM; on human LTA4 hydrolase, 0.099 nM.

As to `c1cc(-c2ccc(Oc3ccc4c(cnn4CCN4CCCC4)c3)cc2)[nH]n1` [Example 75, 5-[4-(2H-pyrazol-3-yl)-phenoxy]-1-(2-pyrrolidin-1-yl-ethyl)-1H-indazole], the half-inhibitory concentration (IC50) in assay [1] is 84 nM; at human LTA4 hydrolase, 0.24 nM.

For the compound `CN(Cc1nc2cc(Oc3ccc(-c4ccn[nH]4)cc3)ccc2[nH]1)C[C@@H]1CCCO1` [Example 76, Methyl-{5-[4-(2H-pyrazol-3-yl)-phenoxy]-1H-benzoimidazol-2-ylmethyl}-[(S)-1-(tetrahydro-furan-2-yl)methyl]-amine], the figures for the half-maximal inhibitory concentration (IC50) (in assay [1]; on human LTA4 hydrolase) were 87 nM and 0.2 nM, respectively.

For the compound `CN(Cc1nc2cc(Oc3ccc(-c4ccn[nH]4)cc3)ccc2[nH]1)[C@H]1CCOC1` [Example 77, Methyl-{5-[4-(2H-pyrazol-3-yl)-phenoxy]-1H-benzoimidazol-2-ylmethyl}-(S)-tetrahydro-furan-3-yl-amine], the half-inhibitory concentration (IC50) in assay [1] worked out at 88 nM; against human LTA4 hydrolase, 0.099 nM.

Consider `CN(Cc1nc2cc(Oc3ccc(-c4ccn[nH]4)cc3)ccc2[nH]1)[C@@H]1CCOC1` [Example 78, Methyl-{5-[4-(2H-pyrazol-3-yl)-phenoxy]-1H-benzoimidazol-2-ylmethyl}-(R)-tetrahydro-furan-3-yl-amine], for which the IC50 was determined as 95 nM in assay [1] and 0.089 nM on human LTA4 hydrolase.

Take `c1cc(-c2ccc(Oc3ccc4c(cnn4CCCN4CCCC4)c3)cc2)[nH]n1` [Example 79, 5-[4-(2H-Pyrazol-3-yl)-phenoxy]-1-(3-pyrrolidin-1-yl-propyl)-1H-indazole]: the half-inhibitory concentration (IC50) came out at 98 nM in assay [1] and 0.3 nM against human LTA4 hydrolase.

As for `CC[C@@H](C)N(C)Cc1nc2cc(Oc3ccc(-c4ccn[nH]4)cc3)ccc2[nH]1` [Example 80, ((R)-sec-Butyl)-methyl-{5-[4-(2H-pyrazol-3-yl)-phenoxy]-1H-benzoimidazol-2-ylmethyl}-amine], the IC50 worked out at 98 nM in assay [1] and 0.09 nM at human LTA4 hydrolase.

On to `CN(Cc1nc2cc(Oc3ccc(-c4ccn[nH]4)cc3)ccc2[nH]1)C[C@H]1CCCO1` [Example 81], for which the IC50 in assay [1] amounted to 100 nM; against human LTA4 hydrolase, 0.27 nM.

Consider `COC[C@H](C)N(C)Cc1nc2cc(Oc3ccc(-c4ccn[nH]4)cc3)ccc2[nH]1` [Example 82, ((S)-2-Methoxy-1-methyl-ethyl)-methyl-{5-[4-(2H-pyrazol-3-yl)-phenoxy]-1H-benzoimidazol-2-ylmethyl}-amine], for which the results for the IC50 (in assay [1]; against human LTA4 hydrolase) were 110 nM and 0.077 nM, respectively.

`c1cc(-c2ccc(Oc3ccc4c(cnn4CCN4CCCC4)c3)nc2)[nH]n1` [Example 83, 5-[5-(2H-Pyrazol-3-yl)-pyridin-2-yloxy]-1-(2-pyrrolidin-1-yl-ethyl)-1H-indazole]: the results for the IC50 (in assay [1]; at human LTA4 hydrolase) were 120 nM and 0.88 nM, respectively.
